# Entries after “also recorded” stand apart in the source; their conditions may differ.
# Test: Oxidative stability of salmon oil, induction period in weight increase experiment
# Conditions: salmon oil from fresh raw materials, antioxidant added to oil, versus control oil without additions
# Procedure: The oil stability was measured as the induction period (in days) in weight increase experiment. Oil A is salmon oil with 200 ppm d-α-tocopherol. Oil E is the control without additions.
# To a sample of fresh fish oil prepared by gentle processing of fresh salmon filleting by-products (viscera, heads, framebones), we added 200 ppm vitamin E consisting of 89-99% d-α-tocopherol and 1-11% (β+γ+δ)-tocopherols (according to product specification), and a mixture of other/synergistic.
# To another sample of the oil, we added 200 ppm vitamin E consisting of 14% d-α-tocopherol, 1% d-β-tocopherol, 62% d-γ-tocopherol and 23% d-δ-tocopherol, and a mixture of other/synergistic antioxidants similar to what was given to the first sample.
# The oxidative stability of the three oils were tested by subjecting 3.0 g samples in 6.0 cm glass petri dishes to a temperature of 35° C. while exposed to air. The oxygen uptake caused by oxidation was recorded as a rapid weight increase of the samples when their antioxidative resistance was broken down, after an initial induction time (IP).
compound,measurement,value
Cc1c(C)c2c(c(C)c1O)CC[C@@](C)(CCC[C@H](C)CCC[C@H](C)CCCC(C)C)O2 [d-α-tocopherol],oil stability measured as induction period,"weakly prooxidant effects; also recorded: did not increase stability, but gave instead a small prooxidant effect"

# From US20060165840A1, “Fish feed” (Norsk Hydro ASA, priority 2002, published 2006)
